# Reference: patent publication US20240239804A1, “FUROINDAZOLE DERIVATIVES AS ANTAGONISTS OR INHIBITORS OF GPR84” (Bayer Aktiengesellschaft, priority 2021, published 2024)
# pIC50: −log10 of the molar value.
# Biological target: T1, human GPR84 receptor (Homo sapiens, UniProt Q9NQS5)
# T1 construct: frozen aliquots prepared by acCELLerate; host or cells: CHO-K1
# Experiment: cAMP HTRF assay for identification of cellular GPR84 antagonists
# Assay type: cell-based
# Details: CHO-K1 cells stably expressing human GPR84; Forskolin plus agonist 6-OAU; cAMP HTRF readout; average or median values
# Method in brief: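 CHO-K1 cells stably expressing human GPR84, preincubated with compound 30 min at room temperature, then stimulated 30 min with 6-OAU (EC80) plus forskolin (EC90). cAMP measured by HTRF 665/620 nm ratio after 60 min lysis; 11 concentrations from 20 μM to 0.07 nM in duplicate, IC50 by 4-parameter fit.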
# T1 sequence (Q9NQS5 whole entry): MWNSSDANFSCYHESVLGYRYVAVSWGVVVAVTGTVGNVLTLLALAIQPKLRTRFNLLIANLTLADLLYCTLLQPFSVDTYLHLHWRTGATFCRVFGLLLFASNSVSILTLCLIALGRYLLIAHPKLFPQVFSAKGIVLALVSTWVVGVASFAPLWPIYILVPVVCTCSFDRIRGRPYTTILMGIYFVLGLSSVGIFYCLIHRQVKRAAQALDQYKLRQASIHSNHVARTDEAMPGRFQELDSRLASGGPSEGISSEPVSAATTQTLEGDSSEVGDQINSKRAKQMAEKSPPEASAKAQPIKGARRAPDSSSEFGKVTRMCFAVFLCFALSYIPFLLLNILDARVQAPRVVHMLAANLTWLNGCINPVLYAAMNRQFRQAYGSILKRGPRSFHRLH
row,pIC50,SMILES
1,5.02,"Cc1c(C(=O)N2CCC(O)CC2)oc2c1-c1nn(Cc3ccc(Cl)cc3)cc1CC2 [Example 71, {2-[(4-chlorophenyl)methyl]-8-methyl-4,5-dihydro-2H-furo[2,3-g]indazol-7-yl}(4-hydroxypiperidin-1-yl)methanone]"
2,5.00,"Cc1c(C(=O)N(C)Cc2ccco2)oc2c1-c1nn(Cc3ccc(Cl)cc3)cc1CC2 [Example 72, 2-[(4-chlorophenyl)methyl]-N-[(furan-2-yl)methyl]-N,8-dimethyl-4,5-dihydro-2H-furo[2,3-g]indazole-7-carboxamide]"
3,4.99,"Cc1c(C(=O)N(C)Cc2ccn(C)n2)oc2c1-c1nn(Cc3ccc(Cl)cc3)cc1CC2 [Example 73, 2-[(4-chlorophenyl)methyl]-N,8-dimethyl-N-[(1-methyl-1H-pyrazol-3-yl)methyl]-4,5-dihydro-2H-furo[2,3-g]indazole-7-carboxamide]"
4,4.97,"Cc1c(C(=O)N(C)Cc2ncc[nH]2)oc2c1-c1nn(Cc3ccc(Cl)cc3)cc1CC2 [Example 74, 2-[(4-chlorophenyl)methyl]-N-[(1H-imidazol-2-yl)methyl]-N,8-dimethyl-4,5-dihydro-2H-furo[2,3-g]indazole-7-carboxamide]"
5,4.91,"Cc1c(C(=O)N2CC(C)OC(C)C2)oc2c1-c1nn(Cc3ccc(Cl)cc3)cc1CC2 (stereo not shown) [Example 75, {2-[(4-chlorophenyl)methyl]-8-methyl-4,5-dihydro-2H-furo[2,3-g]indazol-7-yl}(2,6-dimethylmorpholin-4-yl)methanone]"
6,4.89,"Cc1c(C(=O)N(C)Cc2cnn(C)c2)oc2c1-c1nn(Cc3ccc(Cl)cc3)cc1CC2 [Example 76, 2-[(4-chlorophenyl)methyl]-N,8-dimethyl-N-[(1-methyl-1H-pyrazol-4-yl)methyl]-4,5-dihydro-2H-furo[2,3-g]indazole-7-carboxamide]"
7,4.86,"Cc1c(C(=O)NC2CCOCC2)oc2c1-c1nn(Cc3ccc(Cl)cc3)cc1CC2 [Example 77, 2-(4-chlorobenzyl)-8-methyl-N-(tetrahydro-2H-pyran-4-yl)-4,5-dihydro-2H-furo[2,3-g]indazole-7-carboxamide]"
8,4.84,"Cc1c(C(=O)NCc2ncc[nH]2)oc2c1-c1nn(Cc3ccc(Cl)cc3)cc1CC2 [Example 78, 2-[(4-chlorophenyl)methyl]-N-[(1H-imidazol-2-yl)methyl]-8-methyl-4,5-dihydro-2H-furo[2,3-g]indazole-7-carboxamide]"
9,4.81,"Cc1c(C(=O)N2CCC(CO)CC2)oc2c1-c1nn(Cc3ccc(Cl)cc3)cc1CC2 [Example 79, {2-[(4-chlorophenyl)methyl]-8-methyl-4,5-dihydro-2H-furo[2,3-g]indazol-7-yl}[4-(hydroxymethyl)piperidin-1-yl]methanone]"
10,4.80,"COCCN(C)C(=O)c1oc2c(c1C)-c1nn(Cc3ccc(Cl)cc3)cc1CC2 [Example 80, 2-[(4-chlorophenyl)methyl]-N-(2-methoxyethyl)-N,8-dimethyl-4,5-dihydro-2H-furo[2,3-g]indazole-7-carboxamide]"
11,4.79,"Cc1c(C(=O)NC2CCC(=O)NC2)oc2c1-c1nn(Cc3ccc(Cl)cc3)cc1CC2 (stereo not shown) [Example 81, 2-[(4-chlorophenyl)methyl]-8-methyl-N-(6-oxopiperidin-3-yl)-4,5-dihydro-2H-furo[2,3-g]indazole-7-carboxamide]"
12,4.79,"Cc1c(C(=O)N2CCC[C@@H]2C(N)=O)oc2c1-c1nn(Cc3ccc(Cl)cc3)cc1CC2 [Example 82, 1-{2-[(4-chlorophenyl)methyl]-8-methyl-4,5-dihydro-2H-furo[2,3-g]indazole-7-carbonyl}-D-prolinamide]"
13,4.79,"Cc1c(C(=O)N2CCC(C(N)=O)CC2)oc2c1-c1nn(Cc3ccc(Cl)cc3)cc1CC2 [Example 83, 1-{2-[(4-chlorophenyl)methyl]-8-methyl-4,5-dihydro-2H-furo[2,3-g]indazole-7-carbonyl}piperidine-4-carboxamide]"
14,4.79,"Cc1c(C(=O)N(C)Cc2ccnn2C)oc2c1-c1nn(Cc3ccc(Cl)cc3)cc1CC2 [Example 84, 2-[(4-chlorophenyl)methyl]-N,8-dimethyl-N-[(1-methyl-1H-pyrazol-5-yl)methyl]-4,5-dihydro-2H-furo[2,3-g]indazole-7-carboxamide]"
15,4.77,"Cc1c(C(=O)N(C)CCO)oc2c1-c1nn(Cc3ccc(Cl)cc3)cc1CC2 [Example 85, 2-[(4-chlorophenyl)methyl]-N-(2-hydroxyethyl)-N,8-dimethyl-4,5-dihydro-2H-furo[2,3-g]indazole-7-carboxamide]"
16,4.77,"Cc1c(C(=O)NC(C)(C)C#N)oc2c1-c1nn(Cc3ccc(Cl)cc3)cc1CC2 [Example 86, 2-[(4-chlorophenyl)methyl]-N-(2-cyanopropan-2-yl)-8-methyl-4,5-dihydro-2H-furo[2,3-g]indazole-7-carboxamide]"
17,4.77,Cc1c(C(=O)N2CCCCC2)oc2c1-c1nn(Cc3ccc(Cl)cc3)cc1CC2 [Example 87]
18,4.76,"Cc1c(C(=O)N2CCCC(C(N)=O)C2)oc2c1-c1nn(Cc3ccc(Cl)cc3)cc1CC2 (stereo not shown) [Example 88, 1-{2-[(4-chlorophenyl)methyl]-8-methyl-4,5-dihydro-2H-furo[2,3-g]indazole-7-carbonyl}piperidine-3-carboxamide]"
19,4.76,"Cc1c(C(=O)N(C)Cc2ccccn2)oc2c1-c1nn(Cc3ccc(Cl)cc3)cc1CC2 [Example 89, 2-[(4-chlorophenyl)methyl]-N,8-dimethyl-N-[(pyridin-2-yl)methyl]-4,5-dihydro-2H-furo[2,3-g]indazole-7-carboxamide]"
20,4.72,Cc1c(C(=O)N2CCS(=O)(=O)CC2)oc2c1-c1nn(Cc3ccc(Cl)cc3)cc1CC2 [Example 90]

# More lines, now with the values behind:
row,SMILES,pIC50
1,"Cc1c(C(=O)NCCc2ccccc2)oc2c1-c1nn(Cc3ccc(Cl)cc3)cc1CC2 [Example 57, 2-[(4-chlorophenyl)methyl]-8-methyl-N-(2-phenylethyl)-4,5-dihydro-2H-furo[2,3-g]indazole-7-carboxamide]",5.30
2,"Cc1c(C(=O)NCCO)oc2c1-c1nn(Cc3ccc(Cl)cc3)cc1CC2 [Example 58, 2-[(4-chlorophenyl)methyl]-N-(2-hydroxyethyl)-8-methyl-4,5-dihydro-2H-furo[2,3-g]indazole-7-carboxamide]",5.28
3,"Cc1c(C(=O)NCC2CCS(=O)(=O)C2)oc2c1-c1nn(Cc3ccc(Cl)cc3)cc1CC2 (stereo not shown) [Example 59, 2-(4-chlorobenzyl)-N-[(1,1-dioxidotetrahydrothiophen-3-yl)methyl]-8-methyl-4,5-dihydro-2H-furo[2,3-g]indazole-7-carboxamide]",5.28
4,"Cc1c(C(=O)NCC(C)(C)O)oc2c1-c1nn(Cc3ccc(Cl)cc3)cc1CC2 [Example 60, 2-[(4-chlorophenyl)methyl]-N-(2-hydroxy-2-methylpropyl)-8-methyl-4,5-dihydro-2H-furo[2,3-g]indazole-7-carboxamide]",5.25
5,"Cc1c(C(=O)N2CCc3ccccc3C2)oc2c1-c1nn(Cc3ccc(Cl)cc3)cc1CC2 [Example 61, {2-[(4-chlorophenyl)methyl]-8-methyl-4,5-dihydro-2H-furo[2,3-g]indazol-7-yl}(3,4-dihydroisoquinolin-2(1H)-yl)methanone]",5.22
6,"CC(=O)N1CCN(C(=O)c2oc3c(c2C)-c2nn(Cc4ccc(Cl)cc4)cc2CC3)CC1 [Example 62, 1-(4-{2-[(4-chlorophenyl)methyl]-8-methyl-4,5-dihydro-2H-furo[2,3-g]indazole-7-carbonyl}piperazin-1-yl)ethan-1-one]",5.21
7,"Cc1c(C(=O)NCC[S+](C)[O-])oc2c1-c1nn(Cc3ccc(Cl)cc3)cc1CC2 (stereo not shown) [Example 63, 2-[(4-chlorophenyl)methyl]-NV-[2-(methanesulfinyl)ethyl]-8-methyl-4,5-dihydro-2H-furo[2,3-g]indazole-7-carboxamide]",5.21
8,"Cc1c(C(=O)NCCCO)oc2c1-c1nn(Cc3ccc(Cl)cc3)cc1CC2 [Example 64, 2-[(4-chlorophenyl)methyl]-N-(3-hydroxypropyl)-8-methyl-4,5-dihydro-2H-furo[2,3-g]indazole-7-carboxamide]",5.18
9,"Cc1c(C(=O)NCC(F)F)oc2c1-c1nn(Cc3ccc(Cl)cc3)cc1CC2 [Example 65, 2-[(4-chlorophenyl)methyl]-N-(2,2-difluoroethyl)-8-methyl-4,5-dihydro-2H-furo[2,3-g]indazole-7-carboxamide]",5.13
10,"Cc1c(C(=O)N(C)Cc2ccncc2)oc2c1-c1nn(Cc3ccc(Cl)cc3)cc1CC2 [Example 66, 2-[(4-chlorophenyl)methyl]-/,8-dimethyl-N-[(pyridin-4-yl)methyl]-4,5-dihydro-2H-furo[2,3-g]indazole-7-carboxamide]",5.12
11,"Cc1c(C(=O)N2CCN(S(C)(=O)=O)CC2)oc2c1-c1nn(Cc3ccc(Cl)cc3)cc1CC2 [Example 67, {2-[(4-chlorophenyl)methyl]-8-methyl-4,5-dihydro-2H-furo[2,3-g]indazol-7-yl}[4-(methanesulfonyl)piperazin-1-yl]methanone]",5.11
12,"Cc1c(C(=O)N2CC3CC3C2)oc2c1-c1nn(Cc3ccc(Cl)cc3)cc1CC2 (stereo not shown) [Example 68, (3-azabicyclo[3.1.0]hexan-3-yl){2-[(4-chlorophenyl)methyl]-8-methyl-4,5-dihydro-2H-furo[2,3-g]indazol-7-yl}methanone]",5.10
13,"Cc1c(C(=O)N(C)Cc2cccnc2)oc2c1-c1nn(Cc3ccc(Cl)cc3)cc1CC2 [Example 69, 2-[(4-chlorophenyl)methyl]-N,8-dimethyl-N-[(pyridin-3-yl)methyl]-4,5-dihydro-2H-furo[2,3-g]indazole-7-carboxamide]",5.03
14,"Cc1c(C(=O)NCCC#N)oc2c1-c1nn(Cc3ccc(Cl)cc3)cc1CC2 [Example 70, 2-[(4-chlorophenyl)methyl]-N-(2-cyanoethyl)-8-methyl-4,5-dihydro-2H-furo[2,3-g]indazole-7-carboxamide]",5.02
